Measured values reported in publication PMC7650666, “Computational and In Vitro Investigation of (-)-Epicatechin and Proanthocyanidin B2 as Inhibitors of Human Matrix Metalloproteinase 1” (Biomolecules, 2020).

Columns and labels:
[1] = molecular target: T1, Matrix metalloproteinase 1 (MMP-1) (Homo sapiens, UniProt P03956); assay: casein zymography of protein from fibroblast culture medium preincubated with compound; assay type: cell-based; conditions: read-out: % inhibition at 1000 μg/mL
T1 construct: gene MMP1; MMP-1 secreted by human fibroblast (Detroit551) cells, 54 kDa band
T1 sequence (P03956 20-469): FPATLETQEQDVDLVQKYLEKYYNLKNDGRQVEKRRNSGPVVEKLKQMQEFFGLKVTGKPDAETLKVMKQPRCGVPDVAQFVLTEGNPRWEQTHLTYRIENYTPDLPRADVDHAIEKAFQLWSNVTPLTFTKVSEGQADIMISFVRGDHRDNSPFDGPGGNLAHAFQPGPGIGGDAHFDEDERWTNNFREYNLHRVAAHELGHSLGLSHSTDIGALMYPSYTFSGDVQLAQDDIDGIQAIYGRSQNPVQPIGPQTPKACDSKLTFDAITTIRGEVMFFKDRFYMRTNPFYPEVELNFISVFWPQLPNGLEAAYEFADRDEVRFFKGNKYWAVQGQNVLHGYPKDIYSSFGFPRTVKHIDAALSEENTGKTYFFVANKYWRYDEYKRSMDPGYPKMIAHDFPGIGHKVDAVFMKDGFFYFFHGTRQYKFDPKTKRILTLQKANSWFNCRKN

[2] = molecular target: T1, Matrix metalloproteinase 1 (MMP-1); assay: casein zymography of protein from fibroblast culture medium preincubated with compound (reference inhibitor); assay type: cell-based; conditions: read-out: % inhibition at 1000 μg/mL

inhibition at 1000 µg/mL [1]	Compound	inhibition at 1000 µg/mL [2]
69.2%	Oc1cc(O)c2c(c1)O[C@H](c1ccc(O)c(O)c1)[C@H](O)C2 [(-)-epicatechin]	
	O=C(O[C@@H]1Cc2c(O)cc(O)cc2O[C@@H]1c1cc(O)c(O)c(O)c1)c1cc(O)c(O)c(O)c1 [epigallocatechin gallate]	75.6%
43.4%	Oc1cc(O)c2c(c1)O[C@H](c1ccc(O)c(O)c1)[C@H](O)[C@H]2c1c(O)cc(O)c2c1O[C@H](c1ccc(O)c(O)c1)[C@H](O)C2 [proanthocyanidin B2]	
